Results taken from publication PMC12435445, “Crown Ether–Peptide Rotaxanes” (Angewandte Chemie (International Ed. in English), 2025).

Experiment: Stability of rotaxane positional isomers to heating or standing, followed by 1H NMR
Assay type: physicochemical
Protocol: The properties of the 1:0:0‐, 0:1:0‐ and 0:0:1‐diastereomers of 24C8⊂16 were probed using a range of spectroscopic and spectrometric techniques. No change in the ^1H NMR spectra of the rotaxane positional isomers occurred upon heating at 70 °C in DMSO‐d6 for 2 h, or after prolonged periods at room temperature. […] When compared to the noninterlocked thread peptide 16; significant downfield shifts are observed for Hb in 1:0:0–24C8⊂16 (ΔδHb = +0.45 ppm), Hh in 0:1:0–24C8⊂16 (ΔδHh = +0.30 ppm) and Hq in 0:0:1–24C8⊂16 (ΔδHq = +0.21 ppm). The protons associated with the encapsulated glycine residue are also downshifted (protons Hf, Ho and Hu, in 1:0:0–24C8⊂16, 0:1:0–24C8⊂16 and 0:0:1–24C8⊂16, respectively). Substantial upfield shifts for the amide protons Ha, He, Hg, Hn (ΔδH = −0.78, −0.43, −0.40, and −0.49 ppm) in 1:0:0–24C8⊂16, Hg, Hn, Hp, and Ht in 0:1:0–24C8⊂16 (ΔδH = −0.26, −0.48, −0.45, and −0.44 ppm), and Hp, Ht and Hv (ΔδH = −0.33, −0.44, and −0.63 ppm) in 0:0:1–24C8⊂16 indicate that the crown ether also interacts with the amide group of the C‐adjacent residue. As in the tripeptide rotaxanes 24C8⊂4–14, the diastereotopic splitting for the encapsulated glycine methylene becomes more pronounced, as do the protons of the leucine residue (Hd), within 1:0:0–24C8⊂16. The presence of the macrocycle reduces the rotation of nearby amides within the compartment it occupies.

change in the 1H NMR spectra (interconversion of positional isomers or dethreading of macrocycle) (heating at 70 °C in DMSO-d6 for 2 h): No change
change in the 1H NMR spectra (interconversion of positional isomers or dethreading of macrocycle) (prolonged periods at room temperature): No change
Substance: Boc‐Leu‐Gly‐Trp‐Gly‐Tyr(TIPS)‐Gly‐Phe‐OMe [1:0:0–24C8⊂16, 24C8 crown ether–heptapeptide [2]rotaxane, ring on left‐hand glycine between Boc‐Leu and Trp of axle 16]
